Results taken from ChEMBL document CHEMBL1201862, “PubChem BioAssay data set” (2004).
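Assay format: 96-well plates, 48-hour exposure. Abbreviation: GI50, concentration required for 50% inhibition of growth.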 Activity calls are given as the source filed them. Rule as the data show it: active = GI50 up to about 1.1 µM and inactive = higher.

Assays:
Assay in all cases: NCI-60 cell line screen, 48 h
[1] = system: UACC-257
[2] = system: NCI-H522
[3] = system: M19-MEL
[4] = system: HOP-62
[5] = system: CAKI-1
[6] = system: NCI/ADR-RES
[7] = system: HOP-18
[8] = system: HCC 2998
[9] = system: Malme-3M
[10] = system: OVCAR-3
[11] = system: LOX IMVI
[12] = system: K562
[13] = system: RXF 393
[14] = system: NCI-H226
[15] = system: RPMI-8226
[16] = system: SR
[17] = system: DMS-273

Measured: GI50

COC1OC(=O)[C@H]2O[N+]([O-])=C(C)[C@@H]12 (stereo partly specified)
inactive: [1] > 100 µM | [2] > 100 µM | [3] > 100 µM | [4] > 100 µM | [5] > 100 µM | [6] > 100 µM | [7] > 100 µM | [8] > 100 µM | [9] > 100 µM | [10] > 100 µM | [11] > 100 µM | [12] > 100 µM | [13] > 100 µM | [14] > 73.5 µM | [15] > 100 µM

OCC1OC(n2ccc3cnccc32)CC1O (stereo unspecified)
inactive: [1] > 100 µM | [2] > 100 µM | [3] > 100 µM | [4] > 100 µM | [5] > 100 µM | [7] > 100 µM | [8] > 100 µM | [9] > 100 µM | [10] > 100 µM | [11] > 100 µM | [12] > 100 µM | [14] > 100 µM | [16] > 100 µM | [17] > 100 µM | [15] > 100 µM

Cc1cc(N(CCC#N)S(=O)(=O)c2ccccc2)ccc1/C=N\c1cccc(C(=O)O)c1
inactive: [1] > 100 µM | [2] > 100 µM | [3] > 100 µM | [4] > 100 µM | [5] > 100 µM | [7] > 100 µM | [8] > 100 µM | [9] > 100 µM | [10] > 100 µM | [12] 71 µM | [13] > 100 µM | [14] > 100 µM | [15] > 100 µM

COc1ccc(NC(=O)CC/C(CC(=O)c2ccccc2Cl)=N\Nc2nnc(C)n2N)cc1
inactive: [1] > 100 µM | [3] > 100 µM | [5] > 100 µM | [7] > 100 µM | [8] > 100 µM | [9] > 100 µM | [11] > 100 µM | [12] 61.9 µM | [13] > 100 µM | [14] > 100 µM | [16] > 100 µM | [17] > 100 µM

CC1(C)COC2C(N(Cc3ccccc3)Cc3ccccc3)C(=O)N21 (stereo unspecified)
inactive: [1] 98.6 µM | [2] 19.4 µM | [3] 73.8 µM | [4] 36.9 µM | [5] 39.2 µM | [7] 50 µM | [8] 41.7 µM | [9] 38.6 µM | [10] 30.5 µM | [11] 46.6 µM | [12] 27.9 µM | [13] 19.3 µM | [14] 47.2 µM | [16] 19.1 µM | [15] 20.9 µM

CN(C)c1n/c(=N/c2ccc(/N=c3\nc(N(C)C)ss3)cc2)ss1
inactive: [1] 27.5 µM | [2] 11.5 µM | [3] 20.3 µM | [4] > 100 µM | [5] > 44.3 µM | [7] 54 µM | [8] > 83 µM | [9] 22.5 µM | [10] 28.2 µM | [11] > 44.8 µM | [12] 11.7 µM | [13] 16.5 µM | [14] 56.5 µM | [16] 6.01 µM | [17] 28.8 µM | [15] 9.68 µM
